Target: human mGluR7 (Homo sapiens (Human), UniProt Q14831)
Test: Inositol monophosphate production assay (IP1 assay), inhibition of L-AP4 response
Type: cell-based
Settings: mean IC50 from at least two independent experiments; HEK293 cells transiently transfected with mGluR7, Gqtop and EAAC1; IP1 production vs EC80 L-AP4
Text: Inositol Monophosphate Production Assay (IP1 Assay):
HEK293 cells were transiently transfected with mGluR7 by electroporation and seeded in a poly-ornithine coated 96-well plate at the density of 150 000 cells/well. To allow the monitoring of receptor activity through measurements of inositol monophosphate (IP1) production, mGluR7 was transfected with a chimeric Gq/Gi protein (Gqtop). and was also co-transfected with EAAC1, a glutamate transporter, to avoid influence of extracellular glutamate. Cells were cultured in Dulbecco's Modified Eagle Medium (DMEM, Invitrogen, Cergy Pontoise, France), supplemented with 10% of Fetal Bovine Serum (FBS). Medium was changed by Glutamax™ (Invitrogen, Cergy Pontoise, France) to reduce extracellular glutamate concentration 3 hours before stimulation
IP1 production was determined using the IP-One HTRF kit (CisBio Bioassays), a competitive immunoassay using cryptate-labeled anti-IP1 antibody and d2-labeled IP, according to the manufacturer's recommendations. All points were realized in triplicate.
Data were analyzed with Prism 6 software (GraphPadSoftware, San Diego, Calif.). Typically, in each experiment, a four-parameter concentration-response curve equation was used to fit data and potency (IC50) is estimated as logarithms (log IC50). Data were calculated as % of the control mGluR7 agonist L-AP4 response, defined as the response that is generated upon addition of an EC80-equivalent concentration of L-AP4.
The Table 2 below represents the mean IC50 obtained from at least two independent experiments.

Chain of human mGluR7 (Q14831 35-915): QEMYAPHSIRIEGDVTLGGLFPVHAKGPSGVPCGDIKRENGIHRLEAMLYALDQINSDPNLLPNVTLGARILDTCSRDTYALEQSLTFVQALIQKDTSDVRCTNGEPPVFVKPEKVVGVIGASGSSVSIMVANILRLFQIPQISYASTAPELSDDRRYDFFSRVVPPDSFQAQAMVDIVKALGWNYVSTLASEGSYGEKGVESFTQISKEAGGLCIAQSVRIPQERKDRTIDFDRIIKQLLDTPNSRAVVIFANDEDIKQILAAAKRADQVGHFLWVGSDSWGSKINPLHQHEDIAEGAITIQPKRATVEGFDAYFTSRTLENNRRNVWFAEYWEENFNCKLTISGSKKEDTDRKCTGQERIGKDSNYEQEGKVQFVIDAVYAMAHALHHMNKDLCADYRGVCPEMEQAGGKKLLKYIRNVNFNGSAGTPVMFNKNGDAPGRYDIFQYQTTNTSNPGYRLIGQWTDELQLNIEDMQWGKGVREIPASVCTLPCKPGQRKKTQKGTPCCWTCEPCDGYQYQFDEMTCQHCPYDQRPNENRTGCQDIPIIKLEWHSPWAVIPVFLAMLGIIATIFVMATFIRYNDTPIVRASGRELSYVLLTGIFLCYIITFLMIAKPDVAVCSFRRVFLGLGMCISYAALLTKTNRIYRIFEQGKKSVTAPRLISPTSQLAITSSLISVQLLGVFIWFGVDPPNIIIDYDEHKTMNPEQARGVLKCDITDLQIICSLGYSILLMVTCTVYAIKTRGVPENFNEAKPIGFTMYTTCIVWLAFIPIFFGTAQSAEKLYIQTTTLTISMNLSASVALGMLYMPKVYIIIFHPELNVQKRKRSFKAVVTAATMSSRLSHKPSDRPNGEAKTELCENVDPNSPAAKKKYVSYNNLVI

| Compound | IC50 [nM] |
| --- | --- |
| Cc1ccc(C2CCc3c(cnn(-c4cc(Cl)ccn4)c3=O)C2)c(C)c1 (stereo not drawn) [Example 7, 2-(4-chloropyridin-2-yl)-6-(2,4-dimethylphenyl)-5,6,7,8-tetrahydrophthalazin-1(2H)-one] | < 500 |
| Cc1ccc(C2CCc3c(cnn(-c4ncc(N5CCC5)cn4)c3=O)C2)c(C)c1 (stereo not drawn) [Example 116, 2-(5-(azetidin-1-yl)pyrimidin-2-yl)-6-(2,4-dimethylphenyl)-5,6,7,8-tetrahydrophthalazin-1(2H)-one] | < 500 |
| Cc1cnc(-n2ncc3c(c2=O)CCC(c2cccc(OC4CC4)c2C)C3)nc1 (single isomer, unassigned; (+)) [Example 133, (+)-6-(3-cyclopropoxy-2-methylphenyl)-2-(5-methylpyrimidin-2-yl)-5,6,7,8-tetrahydrophthalazin-1(2H)-one] | 1000 to 30000 |
| COc1cccc(C2CCc3c(cnn(-c4ncc(C)cn4)c3=O)C2)c1Cl (stereo not drawn) [Example 94, 6-(2-chloro-3-methoxyphenyl)-2-(5-methylpyrimidin-2-yl)-5,6,7,8-tetrahydrophthalazin-1(2H)-one] | < 500 |
| Cc1ccc(OC2CC2)cc1C1CCc2c(cnn(-c3ncccn3)c2=O)C1 (stereo not drawn) [Example 84, 6-(5-cyclopropoxy-2-methylphenyl)-2-(pyrimidin-2-yl)-5,6,7,8-tetrahydrophthalazin-1(2H)-one] | < 500 |
| O=c1c2c(cnn1-c1ncccn1)CC(c1cccc3c1ccn3C1CC1)CC2 (single isomer, unassigned; (-)) [Example 139, (−)-6-(1-cyclopropyl-1H-indol-4-yl)-2-(pyrimidin-2-yl)-5,6,7,8-tetrahydrophthalazin-1(2H)-one] | < 500 |
| Cc1c(C2CCc3c(cnn(-c4ncccn4)c3=O)C2)cccc1N(C)C (stereo not drawn) [Example 96, 6-(3-(dimethylamino)-2-methylphenyl)-2-(pyrimidin-2-yl)-5,6,7,8-tetrahydrophthalazin-1(2H)-one] | < 500 |
| Cc1ccc(C2CCc3c(cnn(-c4cccc(C#N)n4)c3=O)C2)c(C)c1 (stereo not drawn) [Example 21, 6-(6-(2,4-dimethylphenyl)-1-oxo-5,6,7,8-tetrahydrophthalazin-2(1H)-yl)picolinonitrile] | < 500 |
| CN1CCc2c(C3CCc4c(cnn(-c5ccccn5)c4=O)C3)cccc21 (stereo not drawn) [Example 69, 6-(1-methylindolin-4-yl)-2-(pyridin-2-yl)-5,6,7,8-tetrahydrophthalazin-1(2H)-one] | < 500 |
| O=c1c2c(cnn1-c1ncccn1)CC(c1cccc(OC3CC3)c1Cl)CC2 (single isomer, unassigned; (+)) [Example 131, (+)-6-(2-chloro-3-cyclopropoxyphenyl)-2-(pyrimidin-2-yl)-5,6,7,8-tetrahydrophthalazin-1(2H)-one] | < 500 |
| Cc1ccc(N2CCCC2)cc1C1CCc2c(cnn(-c3ncccn3)c2=O)C1 (stereo not drawn) [Example 77, 6-(2-methyl-5-(pyrrolidin-1-yl)phenyl)-2-(pyrimidin-2-yl)-5,6,7,8-tetrahydrophthalazin-1(2H)-one] | < 500 |
| COc1cc(C)ccc1C1CCc2c(cnn(-c3ccccn3)c2=O)C1 (stereo not drawn) [Example 67, 6-(2-methoxy-4-methylphenyl)-2-(pyridin-2-yl)-5,6,7,8-tetrahydrophthalazin-1(2H)-one] | 500 to 1000 |
| COc1cccc(C2CCc3c(cnn(-c4ccc(O)cn4)c3=O)C2)c1C (stereo not drawn) [Example 38, 2-(5-hydroxypyridin-2-yl)-6-(3-methoxy-2-methylphenyl)-5,6,7,8-tetrahydrophthalazin-1(2H)-one] | < 500 |
| Cc1cc(C)c(C2CCc3c(cnn(-c4ncccn4)c3=O)C2)c(C)c1 (stereo not drawn) [Example 89, 6-mesityl-2-(pyrimidin-2-yl)-5,6,7,8-tetrahydrophthalazin-1(2H)-one] | < 500 |
| Cc1cc(Cl)ccc1C1CCc2c(cnn(-c3ncccn3)c2=O)C1 (stereo not drawn) [Example 98, 6-(4-chloro-2-methylphenyl)-2-(pyrimidin-2-yl)-5,6,7,8-tetrahydrophthalazin-1(2H)-one] | < 500 |
| COc1ccc(C)c(C2CCc3c(cnn(-c4ncc(C)cn4)c3=O)C2)c1 (stereo not drawn) [Example 47, 6-(5-methoxy-2-methylphenyl)-2-(5-methylpyrimidin-2-yl)-5,6,7,8-tetrahydrophthalazin-1(2H)-one] | < 500 |
| Cc1c(OC(C)C)cccc1C1CCc2c(cnn(-c3ncccn3)c2=O)C1 (stereo not drawn) [Example 103, 6-(3-isopropoxy-2-methylphenyl)-2-(pyrimidin-2-yl)-5,6,7,8-tetrahydrophthalazin-1(2H)-one] | 1000 to 30000 |
| COc1ccc(C)c(C2CCc3c(cnn(-c4ccccn4)c3=O)C2)c1 (stereo not drawn) [Example 61, 6-(5-methoxy-2-methylphenyl)-2-(pyridin-2-yl)-5,6,7,8-tetrahydrophthalazin-1(2H)-one] | < 500 |
| COc1ccc(F)c(C2CCc3c(cnn(-c4ncccn4)c3=O)C2)c1 (stereo not drawn) [Example 74, 6-(2-fluoro-5-methoxyphenyl)-2-(pyrimidin-2-yl)-5,6,7,8-tetrahydrophthalazin-1(2H)-one] | < 500 |
| O=c1c2c(cnn1-c1ccccn1)CC(c1cccc(OC3CC3)c1)CC2 (stereo not drawn) [Example 66, 6-(3-cyclopropoxyphenyl)-2-(pyridin-2-yl)-5,6,7,8-tetrahydrophthalazin-1(2H)-one] | < 500 |
| COc1cccc(C2CCc3c(cnn(-c4ncc(O)cn4)c3=O)C2)c1C (stereo not drawn) [Example 45, 2-(5-hydroxypyrimidin-2-yl)-6-(3-methoxy-2-methylphenyl)-5,6,7,8-tetrahydrophthalazin-1(2H)-one] | < 500 |

Further lines, results first:

| IC50 [nM] | Compound |
| --- | --- |
| < 500 | Cc1ccnc(-n2ncc3c(c2=O)CCC(c2ccc(C)cc2C)C3)c1 (stereo not drawn) [Example 19, 6-(2,4-dimethylphenyl)-2-(4-methylpyridin-2-yl)-5,6,7,8-tetrahydrophthalazin-1(2H)-one] |
| < 500 | Cc1ccc(C2CCc3c(cnn(-c4ccccn4)c3=O)C2)c(C)c1 (single isomer, unassigned; (+)) [Example 5, (+)-6-(2,4-dimethyl-phenyl)-2-pyridin-2-yl-5,6,7,8-tetrahydro-2H-phthalazin-1-one] |
| < 500 | COc1cccc(C2CCc3c(cnn(-c4ncc(OCCO)cn4)c3=O)C2)c1C (stereo not drawn) [Example 119, 2-(5-(2-hydroxyethoxy)pyrimidin-2-yl)-6-(3-methoxy-2-methylphenyl)-5,6,7,8-tetrahydrophthalazin-1(2H)-one] |
| < 500 | COc1cc(C2CCc3c(cnn(-c4ncccn4)c3=O)C2)c(C)cc1C (stereo not drawn) [Example 97, 6-(5-methoxy-2,4-dimethylphenyl)-2-(pyrimidin-2-yl)-5,6,7,8-tetrahydrophthalazin-1(2H)-one] |
| < 500 | CN(C)c1cccc(C2CCc3c(cnn(-c4ccccn4)c3=O)C2)c1 (stereo not drawn) [Example 59, 6-(3-(dimethylamino)phenyl)-2-(pyridin-2-yl)-5,6,7,8-tetrahydrophthalazin-1(2H)-one] |
| 1000 to 30000 | Cc1ccc(C2CCc3c(cnn(-c4cn(C)cn4)c3=O)C2)c(C)c1 (stereo not drawn) [Example 34, 6-(2,4-dimethylphenyl)-2-(1-methyl-1H-imidazol-4-yl)-5,6,7,8-tetrahydrophthalazin-1(2H)-one] |
| < 500 | Cc1c(OC2CC2)cccc1C1CCc2c(cnn(-c3ncc(Br)cn3)c2=O)C1 (stereo not drawn) [Example 126, 2-(5-bromopyrimidin-2-yl)-6-(3-cyclopropoxy-2-methylphenyl)-5,6,7,8-tetrahydrophthalazin-1(2H)-one] |
| < 500 | CC(=O)Nc1cnc(-n2ncc3c(c2=O)CCC(c2ccc(C)cc2C)C3)nc1 (single isomer, unassigned; (+)) [Example 137, (+)-N-(2-(6-(2,4-dimethylphenyl)-1-oxo-5,6,7,8-tetrahydrophthalazin-2(1H)-yl)pyrimidin-5-yl)acetamide] |
| 500 to 1000 | COc1cccc(C2CCc3c(cnn(-c4ccccn4)c3=O)C2)c1 (stereo not drawn) [Example 2, 6-(3-methoxyphenyl)-2-(pyridin-2-yl)-5,6,7,8-tetrahydrophthalazin-1(2H)-one] |
| < 500 | COc1ccc(C2CCc3c(cnn(-c4ncccn4)c3=O)C2)c(C)c1 (stereo not drawn) [Example 87, 6-(4-methoxy-2-methylphenyl)-2-(pyrimidin-2-yl)-5,6,7,8-tetrahydrophthalazin-1(2H)-one] |
| < 500 | COc1ccc(C)c(C2CCc3c(cnn(-c4ncccn4)c3=O)C2)c1 (stereo not drawn) [Example 80, 6-(5-methoxy-2-methylphenyl)-2-(pyrimidin-2-yl)-5,6,7,8-tetrahydrophthalazin-1(2H)-one] |
| 500 to 1000 | Cc1cccc(C2CCc3c(cnn(-c4ncccn4)c3=O)C2)c1C (stereo not drawn) [Example 82, 6-(2,3-dimethylphenyl)-2-(pyrimidin-2-yl)-5,6,7,8-tetrahydrophthalazin-1(2H)-one] |
| < 500 | COc1cccc(C2CCc3c(cnn(-c4ccc(CO)cn4)c3=O)C2)c1C (stereo not drawn) [Example 39, 2-(5-(hydroxymethyl)pyridin-2-yl)-6-(3-methoxy-2-methylphenyl)-5,6,7,8-tetrahydrophthalazin-1(2H)-one] |
| < 500 | COc1cccc(C2CCc3c(cnn(-c4ncccn4)c3=O)C2)c1C (stereo not drawn) [Example 40, 6-(3-methoxy-2-methylphenyl)-2-(pyrimidin-2-yl)-5,6,7,8-tetrahydrophthalazin-1(2H)-one] |
| < 500 | Cc1ccc(C2CCc3c(cnn(-c4ccccn4)c3=O)C2)c(C)c1 (stereo not drawn) [Example 1, 6-(2,4-dimethyl-phenyl)-2-pyridin-2-yl-5,6,7,8-tetrahydro-2H-phthalazin-1-one] |
